# Measured values: PubChem BioAssay AID1259407 (Chemical Carcinogenesis Research Information System (CCRIS), 2018)
# Active and inactive are the calls of the source. How the calls were made is not given here.
# Test system: CCRIS mutagenicity, Ames/micronucleus/aberration tests
# Experiment: CCRIS mutagenicity studies
# [1] = Test System: AMES SALMONELLA TYPHIMURIUM, Strain/Indicator: TA1535, Metabolic Activation: NONE, Method: PREINCUBATION
# [2] = Test System: AMES SALMONELLA TYPHIMURIUM, Strain/Indicator: TA98, Metabolic Activation: NONE, Method: PREINCUBATION
# [3] = Test System: AMES SALMONELLA TYPHIMURIUM, Strain/Indicator: TA100, Metabolic Activation: NONE, Method: PREINCUBATION
compound,measurement,setting,value
CC[N+]([O-])=NC,mutagenic call,"Test System: AMES SALMONELLA TYPHIMURIUM, Strain/Indicator: TA1535, Metabolic Activation: HAMSTER, LIVER, S-9, AROCLOR 1254, Method: PREINCUBATION",inactive; negative
same,mutagenic call,[1],inactive; negative
same,mutagenic call,"Test System: AMES SALMONELLA TYPHIMURIUM, Strain/Indicator: TA1535, Metabolic Activation: RAT, LIVER, S-9, AROCLOR 1254, Method: PREINCUBATION",inactive; negative
C=C1C[C@@H]2CC[C@]34C[C@@H]5O[C@@H]6[C@H](O[C@H]7CC[C@H](CC(=O)O[C@@H]8[C@H](C)[C@@H]9O[C@@H]%10C[C@]%11(C[C@@H]%12O[C@@]%13(C[C@H](C)[C@@H]%12O%11)C[C@H](C)[C@@H]%11O[C@@H]([C@@H](O)C[C@H](O)CO)C[C@H]%11O%13)O[C@@H]%10C[C@@H]9O[C@H]8C[C@@H]8O[C@H](CC[C@@H]1O2)C[C@H](C)C8=C)O[C@@H]7[C@H]6O3)[C@H]5O4,mutagenic call,"Test System: Mouse lymphoma, Strain/Indicator: L5178Y (tk+/tk-), Metabolic Activation: None, Method: Suspension/plate",inactive; negative
same,mutagenic call,"Test System: Mouse lymphoma, Strain/Indicator: L5178Y (tk+/tk-), Metabolic Activation: Rat, Liver, S-9, Aroclor 1254, Method: Suspension/plate",active; equivocal (previous evaluation positive)
CC(O)C(=O)NCCO (configuration not stated),mutagenic call,"Test System: AMES SALMONELLA TYPHIMURIUM, Strain/Indicator: TA98, Metabolic Activation: RAT, LIVER, S-9, AROCLOR 1254, Method: STANDARD PLATE",active; positive
same,mutagenic call,"Test System: AMES SALMONELLA TYPHIMURIUM, Strain/Indicator: TA1538, Metabolic Activation: RAT, LIVER, S-9, AROCLOR 1254, Method: STANDARD PLATE",active; positive
C[CH2][Pb]([Cl])([CH2]C)[CH2]C,mutagenic call,"Test System: AMES SALMONELLA TYPHIMURIUM, Strain/Indicator: TA98, Metabolic Activation: HAMSTER, LIVER, S-9, AROCLOR 1254 (10%), Method: PREINCUBATION",inactive; negative
same,mutagenic call,[2],inactive; negative
same,mutagenic call,"Test System: AMES SALMONELLA TYPHIMURIUM, Strain/Indicator: TA98, Metabolic Activation: RAT, LIVER, S-9, AROCLOR 1254 (10%), Method: PREINCUBATION",inactive; negative
same,mutagenic call,"Test System: AMES SALMONELLA TYPHIMURIUM, Strain/Indicator: TA100, Metabolic Activation: HAMSTER, LIVER, S-9, AROCLOR 1254 (10%), Method: PREINCUBATION",inactive; negative
same,mutagenic call,[3],inactive; negative
same,mutagenic call,"Test System: AMES SALMONELLA TYPHIMURIUM, Strain/Indicator: TA100, Metabolic Activation: RAT, LIVER, S-9, AROCLOR 1254 (10%), Method: PREINCUBATION",inactive; negative
same,mutagenic call,"Test System: AMES SALMONELLA TYPHIMURIUM, Strain/Indicator: TA1535, Metabolic Activation: HAMSTER, LIVER, S-9, AROCLOR 1254 (10%), Method: PREINCUBATION",inactive; negative
same,mutagenic call,[1],inactive; negative
same,mutagenic call,"Test System: AMES SALMONELLA TYPHIMURIUM, Strain/Indicator: TA1535, Metabolic Activation: RAT, LIVER, S-9, AROCLOR 1254 (10%), Method: PREINCUBATION",inactive; negative
same,mutagenic call,"Test System: AMES SALMONELLA TYPHIMURIUM, Strain/Indicator: TA1537, Metabolic Activation: HAMSTER, LIVER, S-9, AROCLOR 1254 (10%), Method: PREINCUBATION",inactive; negative
same,mutagenic call,"Test System: AMES SALMONELLA TYPHIMURIUM, Strain/Indicator: TA1537, Metabolic Activation: NONE, Method: PREINCUBATION",inactive; negative
same,mutagenic call,"Test System: AMES SALMONELLA TYPHIMURIUM, Strain/Indicator: TA1537, Metabolic Activation: RAT, LIVER, S-9, AROCLOR 1254 (10%), Method: PREINCUBATION",inactive; negative
C[CH2][Ge]([Cl])([CH2]C)[CH2]C,mutagenic call,"Test System: AMES SALMONELLA TYPHIMURIUM, Strain/Indicator: TA98, Metabolic Activation: HAMSTER, LIVER, S-9, AROCLOR 1254 (10%), Method: STANDARD PLATE",inactive; negative
same,mutagenic call,"Test System: AMES SALMONELLA TYPHIMURIUM, Strain/Indicator: TA98, Metabolic Activation: NONE, Method: STANDARD PLATE",inactive; negative
same,mutagenic call,"Test System: AMES SALMONELLA TYPHIMURIUM, Strain/Indicator: TA98, Metabolic Activation: RAT, LIVER, S-9, AROCLOR 1254 (10%), Method: STANDARD PLATE",inactive; negative
same,mutagenic call,"Test System: AMES SALMONELLA TYPHIMURIUM, Strain/Indicator: TA100, Metabolic Activation: HAMSTER, LIVER, S-9, AROCLOR 1254 (10%), Method: STANDARD PLATE",inactive; negative
same,mutagenic call,"Test System: AMES SALMONELLA TYPHIMURIUM, Strain/Indicator: TA100, Metabolic Activation: NONE, Method: STANDARD PLATE",inactive; negative
same,mutagenic call,"Test System: AMES SALMONELLA TYPHIMURIUM, Strain/Indicator: TA100, Metabolic Activation: RAT, LIVER, S-9, AROCLOR 1254 (10%), Method: STANDARD PLATE",inactive; negative
same,mutagenic call,"Test System: AMES SALMONELLA TYPHIMURIUM, Strain/Indicator: TA1535, Metabolic Activation: HAMSTER, LIVER, S-9, AROCLOR 1254 (10%), Method: STANDARD PLATE",inactive; negative
same,mutagenic call,"Test System: AMES SALMONELLA TYPHIMURIUM, Strain/Indicator: TA1535, Metabolic Activation: NONE, Method: STANDARD PLATE",inactive; negative
same,mutagenic call,"Test System: AMES SALMONELLA TYPHIMURIUM, Strain/Indicator: TA1535, Metabolic Activation: RAT, LIVER, S-9, AROCLOR 1254 (10%), Method: STANDARD PLATE",inactive; negative
same,mutagenic call,"Test System: AMES SALMONELLA TYPHIMURIUM, Strain/Indicator: TA1537, Metabolic Activation: HAMSTER, LIVER, S-9, AROCLOR 1254 (10%), Method: STANDARD PLATE",inactive; negative
same,mutagenic call,"Test System: AMES SALMONELLA TYPHIMURIUM, Strain/Indicator: TA1537, Metabolic Activation: NONE, Method: STANDARD PLATE",inactive; negative
same,mutagenic call,"Test System: AMES SALMONELLA TYPHIMURIUM, Strain/Indicator: TA1537, Metabolic Activation: RAT, LIVER, S-9, AROCLOR 1254 (10%), Method: STANDARD PLATE",inactive; negative
same,mutagenic call,"Test System: AMES SALMONELLA TYPHIMURIUM, Strain/Indicator: TA1538, Metabolic Activation: HAMSTER, LIVER, S-9, AROCLOR 1254 (10%), Method: STANDARD PLATE",inactive; negative
same,mutagenic call,"Test System: AMES SALMONELLA TYPHIMURIUM, Strain/Indicator: TA1538, Metabolic Activation: NONE, Method: STANDARD PLATE",inactive; negative
same,mutagenic call,"Test System: AMES SALMONELLA TYPHIMURIUM, Strain/Indicator: TA1538, Metabolic Activation: RAT, LIVER, S-9, AROCLOR 1254 (10%), Method: STANDARD PLATE",inactive; negative
same,mutagenic call,"Test System: MOUSE LYMPHOMA, Strain/Indicator: L5178Y (TK+/TK-), Metabolic Activation: NONE, Method: SUSPENSION/PLATE",inactive; negative. reevaluation of results: inconclusive
same,mutagenic call,"Test System: MOUSE LYMPHOMA, Strain/Indicator: L5178Y (TK+/TK-), Metabolic Activation: RAT, LIVER, S-9, AROCLOR 1254, Method: SUSPENSION/PLATE",inactive; negative. reevaluation of results: negative
Oc1ccc(Cl)cc1Sc1cc(Cl)ccc1O,mutagenic call,"Test System: AMES SALMONELLA TYPHIMURIUM, Strain/Indicator: TA97, Metabolic Activation: HAMSTER, LIVER, S-9, AROCLOR 1254 (10 OR 30%), Method: PREINCUBATION",inactive; negative
same,mutagenic call,"Test System: AMES SALMONELLA TYPHIMURIUM, Strain/Indicator: TA97, Metabolic Activation: NONE, Method: PREINCUBATION",inactive; negative
same,mutagenic call,"Test System: AMES SALMONELLA TYPHIMURIUM, Strain/Indicator: TA97, Metabolic Activation: RAT, LIVER, S-9, AROCLOR 1254 (10 OR 30%), Method: PREINCUBATION",inactive; negative
same,mutagenic call,"Test System: AMES SALMONELLA TYPHIMURIUM, Strain/Indicator: TA98, Metabolic Activation: HAMSTER, LIVER, S-9, AROCLOR 1254 (10 OR 30%), Method: PREINCUBATION",inactive; negative
same,mutagenic call,[2],inactive; negative
same,mutagenic call,"Test System: AMES SALMONELLA TYPHIMURIUM, Strain/Indicator: TA98, Metabolic Activation: RAT, LIVER, S-9, AROCLOR 1254 (10 OR 30%), Method: PREINCUBATION",inactive; negative
same,mutagenic call,"Test System: AMES SALMONELLA TYPHIMURIUM, Strain/Indicator: TA100, Metabolic Activation: HAMSTER, LIVER, S-9, AROCLOR 1254 (10 OR 30%), Method: PREINCUBATION",inactive; negative
same,mutagenic call,[3],inactive; negative
same,mutagenic call,"Test System: AMES SALMONELLA TYPHIMURIUM, Strain/Indicator: TA100, Metabolic Activation: RAT, LIVER, S-9, AROCLOR 1254 (10 OR 30%), Method: PREINCUBATION",inactive; negative
same,mutagenic call,"Test System: AMES SALMONELLA TYPHIMURIUM, Strain/Indicator: TA1535, Metabolic Activation: HAMSTER, LIVER, S-9, AROCLOR 1254 (10 OR 30%), Method: PREINCUBATION",inactive; negative
same,mutagenic call,[1],inactive; negative
same,mutagenic call,"Test System: AMES SALMONELLA TYPHIMURIUM, Strain/Indicator: TA1535, Metabolic Activation: RAT, LIVER, S-9, AROCLOR 1254 (10 OR 30%), Method: PREINCUBATION",inactive; negative
CC1(C)COCN1,mutagenic call,"End Point: In vitro chromosomal aberrations, Test System: Chinese hamster ovary (CHO) cells, Metabolic Activation: None",active; positive
same,mutagenic call,"End Point: In vitro chromosomal aberrations, Test System: Chinese hamster ovary (CHO) cells, Metabolic Activation: S-9",active; positive
same,mutagenic call,"Test System: Mouse lymphoma, Strain/Indicator: L5178Y (TK+/TK-), Metabolic Activation: None, Method: Not specified by DPR",active; positive (purity 78%)
same,mutagenic call,"Test System: Mouse lymphoma, Strain/Indicator: L5178Y (TK+/TK-), Metabolic Activation: S-9, Method: Not specified by DPR",active; positive (purity 78%)
